Measurements: PubChem BioAssay AID248 (DTP/NCI, 2004)
Several values for one entry are separate records, joined by “and”; a condition that tells them apart may be missing. Equal values may be shown once. Inconclusive results and toxic doses are left out. No stated cut-off is given here; in the data, active means T/C of 150% or more; inactive means T/C below 125%.

Test system: L1210 leukemia ip in BDF1 mice, survival T/C
Experiment: NCI In Vivo Anticancer Drug Screen. Data for tumor model L1210 Leukemia (intraperitoneal) in B6D2F1 (BDF1) mice
Settings: endpoint: mean survival time, higher = longer survival
In short: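 Tumor cells were implanted, animals were treated, and survival was followed. The result divides the treated measurement by the vehicle-control measurement.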

[1] = dose: 1000.0 mg/kg/injection, schedule: Q01DX001 (ip), vehicle: saline
[2] = dose: 100.0 mg/kg/injection, schedule: Q01DX001 (ip), vehicle: carboxymethylcellulose (CMC)
[3] = dose: 200.0 mg/kg/injection, schedule: Q01DX001 (ip), vehicle: carboxymethylcellulose (CMC)
[4] = dose: 400.0 mg/kg/injection, schedule: Q01DX001 (ip), vehicle: carboxymethylcellulose (CMC)
[5] = dose: 100.0 mg/kg/injection, schedule: Q01DX009 (ip), vehicle: Klucel (hydroxypropylcellulose) (HPC)
[6] = dose: 100.0 mg/kg/injection, schedule: Q04DX003 (ip), vehicle: Klucel (hydroxypropylcellulose) (HPC)
[7] = dose: 200.0 mg/kg/injection, schedule: Q04DX003 (ip), vehicle: Klucel (hydroxypropylcellulose) (HPC)
[8] = dose: 400.0 mg/kg/injection, schedule: Q04DX003 (ip), vehicle: Klucel (hydroxypropylcellulose) (HPC)
[9] = dose: 200.0 mg/kg/injection, schedule: Q01DX009 (ip), vehicle: Klucel (hydroxypropylcellulose) (HPC)
[10] = dose: 400.0 mg/kg/injection, schedule: Q01DX009 (ip), vehicle: Klucel (hydroxypropylcellulose) (HPC)
[11] = dose: 100.0 mg/kg/injection, schedule: Q04DX002 (ip), vehicle: saline with Tween-80
[12] = dose: 400.0 mg/kg/injection, schedule: Q04DX002 (ip), vehicle: saline with Tween-80
[13] = dose: 100.0 mg/kg/injection, schedule: Q04DX003 (ip), vehicle: other
[14] = dose: 100.0 mg/kg/injection, schedule: Q01DX001 (ip), vehicle: saline
[15] = dose: 200.0 mg/kg/injection, schedule: Q01DX001 (ip), vehicle: saline
[16] = dose: 400.0 mg/kg/injection, schedule: Q01DX001 (ip), vehicle: saline

Measured: T/C

CCOC(=O)c1ccc(N(CCOS(C)(=O)=O)CCOS(C)(=O)=O)cc1
inactive: dose: 7.1 mg/kg/injection, schedule: Q01DX015 (ip), vehicle: saline 98 % of control | dose: 10.0 mg/kg/injection, schedule: Q01DX015 (ip), vehicle: saline 102 % of control | dose: 16.0 mg/kg/injection, schedule: Q01DX015 (ip), vehicle: saline 108 % of control | dose: 25.0 mg/kg/injection, schedule: Q01DX015 (ip), vehicle: saline 113 % of control | dose: 75.0 mg/kg/injection, schedule: Q01DX001 (ip), vehicle: saline 109 % of control | dose: 100.0 mg/kg/injection, schedule: Q01DX015 (ip), vehicle: saline 87 % of control | dose: 300.0 mg/kg/injection, schedule: Q01DX001 (ip), vehicle: saline 120 % of control | dose: 600.0 mg/kg/injection, schedule: Q01DX001 (ip), vehicle: saline 122 % of control | [1] 116 % of control

Nc1ncnc2c1cnn2Cc1ccc(Cl)cc1
inactive: dose: 50.0 mg/kg/injection, schedule: Q01DX009 (ip), vehicle: saline 100 % of control | [2] 98 % of control and 103 % of control | dose: 100.0 mg/kg/injection, schedule: Q01DX009 (ip), vehicle: saline 88 % of control | dose: 100.0 mg/kg/injection, schedule: Q04DX003 (ip), vehicle: carboxymethylcellulose (CMC) 97 % of control | [3] 93 % of control and 115 % of control | dose: 200.0 mg/kg/injection, schedule: Q04DX003 (ip), vehicle: carboxymethylcellulose (CMC) 95 % of control | [4] 96 % of control and 121 % of control

O=C(CCl)Nc1ccccc1
inactive: dose: 100.0 mg/kg/injection, schedule: Q04DX002 (ip), vehicle: Klucel (hydroxypropylcellulose) (HPC) 89 % of control | dose: 200.0 mg/kg/injection, schedule: Q04DX002 (ip), vehicle: Klucel (hydroxypropylcellulose) (HPC) 92 % of control

O=C1NC(c2ccccc2Cl)Nc2ccccc21 (centres undefined)
inactive: dose: 50.0 mg/kg/injection, schedule: Q01DX009 (ip), vehicle: Klucel (hydroxypropylcellulose) (HPC) 103 % of control | [5] 101 % of control | dose: 150.0 mg/kg/injection, schedule: Q01DX009 (ip), vehicle: Klucel (hydroxypropylcellulose) (HPC) 97 % of control

CCC(Cl)COP(=O)(OCC(Cl)CC)C(c1ccc(Cl)c(Cl)c1)P(=O)(OCC(Cl)CC)OCC(Cl)CC (centres undefined)
inactive: [6] 101 % of control | [7] 98 % of control | [8] 96 % of control

CCOC(=O)C1C(=O)C(CN(CCCl)CCCl)C(=O)C(C(=O)OCC)C1c1ccc(O)cc1 (centres undefined)
inactive: [5] 113 % of control | [6] 106 % of control | [9] 112 % of control | [7] 110 % of control | [10] 110 % of control | [8] 114 % of control

Cc1cccc(C2=N/C(=C\c3ccccc3)C(=O)O2)c1
inactive: [11] 95 % of control | dose: 200.0 mg/kg/injection, schedule: Q04DX002 (ip), vehicle: saline with Tween-80 89 % of control | [12] 89 % of control

CCCCCCOC(=O)Nc1ccc(S(=O)(=O)CC)cc1
inactive: [2] 100 % of control | [3] 97 % of control | [4] 97 % of control

BrCC1OCC2(CO1)COC(CBr)OC2 (centres undefined)
inactive: [6] 96 % of control | [7] 104 % of control

CCOC(=O)/C(O)=C\c1cc(OC)n[n+]([O-])c1Cl
inactive: dose: 25.0 mg/kg/injection, schedule: Q04DX002 (ip), vehicle: saline with Tween-80 102 % of control | dose: 50.0 mg/kg/injection, schedule: Q04DX002 (ip), vehicle: saline with Tween-80 98 % of control | [11] 102 % of control

CCC(=O)c1ccc(Cc2ccc(C(=O)CC)cc2)cc1
inactive: dose: 125.0 mg/kg/injection, schedule: Q01DX001 (ip), vehicle: saline 104 % of control | dose: 250.0 mg/kg/injection, schedule: Q01DX001 (ip), vehicle: saline 101 % of control | dose: 500.0 mg/kg/injection, schedule: Q01DX001 (ip), vehicle: saline 93 % of control | [1] 98 % of control

O=C(O)c1ccc(NC(=O)c2cccc(F)c2)cc1
inactive: [5] 100 % of control | [9] 108 % of control | [10] 101 % of control

c1cc(N=NNc2cccc(C3=NCCN3)c2)cc(C2=NCCN2)c1
inactive: dose: 7.75 mg/kg/injection, schedule: Q01DX015 (ip), vehicle: water 100 % of control | dose: 15.5 mg/kg/injection, schedule: Q01DX015 (ip), vehicle: water 94 % of control | dose: 31.0 mg/kg/injection, schedule: Q01DX015 (ip), vehicle: water 100 % of control | dose: 62.0 mg/kg/injection, schedule: Q01DX015 (ip), vehicle: water 98 % of control

COc1ccc(-n2c(=O)c(N=Nc3ccc(Cl)cc3)c(O)n(-c3ccc(Br)cc3)c2=S)cc1
inactive: dose: 100.0 mg/kg/injection, schedule: Q01DX001 (ip), vehicle: Klucel (hydroxypropylcellulose) (HPC) 94 % of control | dose: 200.0 mg/kg/injection, schedule: Q01DX001 (ip), vehicle: Klucel (hydroxypropylcellulose) (HPC) 94 % of control | dose: 400.0 mg/kg/injection, schedule: Q01DX001 (ip), vehicle: Klucel (hydroxypropylcellulose) (HPC) 92 % of control

CC(C)=CCC/C(C)=C\CN=C1C=CC(=O)O1
inactive: dose: 25.0 mg/kg/injection, schedule: Q01DX009 (ip), vehicle: saline + alcohol 97 % of control | dose: 25.0 mg/kg/injection, schedule: Q04DX003 (ip), vehicle: other 107 % of control | dose: 50.0 mg/kg/injection, schedule: Q01DX009 (ip), vehicle: saline + alcohol 90 % of control | dose: 50.0 mg/kg/injection, schedule: Q04DX003 (ip), vehicle: other 107 % of control | [13] 121 % of control | dose: 100.0 mg/kg/injection, schedule: Q04DX003 (ip), vehicle: saline 91 % of control

COc1ccc(-c2ccccc2C(=O)O)cc1
inactive: [2] 107 % of control | [3] 96 % of control | [4] 100 % of control

NC(=O)N/N=C/C1CCC=CO1 (centres undefined)
inactive: [5] 94 % of control | [9] 102 % of control | [10] 103 % of control

CCOC(=O)CN=NNc1[nH]ncc1C(N)=O
inactive: dose: 100.0 mg/kg/injection, schedule: Q01DX001 (ip), vehicle: other 102 % of control | dose: 100.0 mg/kg/injection, schedule: Q01DX009 (ip), vehicle: saline with Tween-80 115 % of control | [13] 101 % of control | dose: 200.0 mg/kg/injection, schedule: Q01DX001 (ip), vehicle: other 104 % of control | dose: 200.0 mg/kg/injection, schedule: Q01DX009 (ip), vehicle: saline with Tween-80 115 % of control | dose: 200.0 mg/kg/injection, schedule: Q04DX003 (ip), vehicle: other 113 % of control | dose: 400.0 mg/kg/injection, schedule: Q01DX001 (ip), vehicle: other 105 % of control | dose: 400.0 mg/kg/injection, schedule: Q01DX009 (ip), vehicle: saline with Tween-80 116 % of control | dose: 400.0 mg/kg/injection, schedule: Q04DX003 (ip), vehicle: other 104 % of control

O=[N+]([O-])c1ccc(-c2cc3ccccc3[n+]([O-])c2)cc1
inactive: [14] 98 % of control | [15] 101 % of control | [16] 101 % of control

C=C(CCCCCCCCCCCCCCCC)C(=O)O
inactive: [11] 91 % of control | [12] 88 % of control

CCOC(CC)OCC
inactive: [14] 97 % of control | [15] 103 % of control | [16] 94 % of control
